pIC50: −log10 of the molar value.
Assays:
[1] = target: CLK3 (Mus musculus, UniProt O35492); test: Recombinant protein kinase assay, CLK3; assay type: biochemical
[2] = system: wt mice; test: Novel object recognition (NOR) test in wt mice; assay type: in vivo, mouse; conditions: 20 mg/kg daily i.p., 5, 12 or 19 days
Protocol: (§1) Behavioural studies were conducted in 12- to 20-week-old male animals. All assessments were scored blind to genotype and treatment, as recommended by the ARRIVE guidelines ([Karp et al., 2015]; [Kilkenny et al., 2010]). […] The final formulation was prepared just prior to use as a 2 mg/ml solution diluted in PEG300/water (50/45), to reach a final DMSO/PEG300/water 5/50/45 (v/v/v) mix. Treated animals received a daily dose (5, 12 or 19 days) of this formulation by i.p. injection of 20 mg/kg/day. Nontreated animals received the same formulation without L41.
(§2) The NOR task is based on the innate tendency of rodents to differentially explore a novel object over a familiar one ([Ennaceur and Delacour, 1988]). Day 1 was a habituation session. Mice freely explored the apparatus, a white circular arena (53 cm diameter) placed in a dimly lit testing room (40 lux). On day 2, the acquisition phase, mice were free to explore two identical objects for 10 min. Mice were then returned to their home cage for a 24 h retention interval. […] Object exploration was manually scored and defined as the orientation of the nose to the object at a distance <1 cm. For the retention phase, the percent of time spent exploring familiar versus novel objects was calculated to assess memory performance.

[3] = target: T1, CDK9/cyclin T (Homo sapiens, UniProt P50750); test: Recombinant protein kinase assay, CDK9/cyclin T; assay type: biochemical; conditions: 15 µM ATP
T1 construct: made in house; host or cells: insect cells

[4] = target: CDK2/cyclin A (Homo sapiens, UniProt P24941); test: Recombinant protein kinase assay, CDK2/cyclin A; assay type: biochemical; conditions: 15 µM ATP
[5] = L41 levels in brain nuclear and cytoplasmic fractions; conditions: mouse, in vivo
Protocol: Thus, DYRK1A overexpression in the transgenic animals' brains appears to be limited to the cytoplasmic fraction, corresponding to the subcellular distribution of overexpressed DYRK1A (Fig. 7A,B). Accordingly, more L41 is detected in the cytoplasmic fraction from transgenic animals compared with their control littermates.
Nuclear, cytosolic and synaptosomal subcellular fractionation of brain tissue was performed with the Syn-PER™ and ProteoExtract® Tissue Dissociation Buffer Kit and Subcellular Proteome Extraction Kit following the instructions of the manufacturer. Fractions were analysed by SDS-PAGE and WB with specific antibodies.

[6] = system: Dyrk1a mRNA; test: Brain Dyrk1a mRNA expression by qPCR after treatment; assay type: in vivo, mouse; conditions: 19 days daily i.p., Tg(Dyrk1a), Ts65Dn and wt brains
Description: To validate the Tg(Dyrk1a) and Ts65Dn models in terms of DYRK1A expression and function, we first verified the expression levels of Dyrk1a mRNA (Fig. 4A) and DYRK1A protein (Fig. 4B) in brains derived from control or L41-treated animals (19 days, daily i.p.). Total mRNAs were extracted from brains and Dyrk1a, Gsk-3b and Rplp0 mRNAs were quantified by quantitative polymerase chain reaction (qPCR) with specific primers. […] We next measured DYRK1A catalytic activities from transgenic and wt brain protein extracts (Fig. 4C). […] As expected, DYRK1A activity was elevated by ∼1.5- to 1.8-fold in transgenic brains compared with wt brains (Fig. 4C).
Fig. 4. Dyrk1a mRNA and DYRK1A protein expression, and catalytic activity in Tg(Dyrk1a) and corresponding wt mice brains, and in Ts65Dn and corresponding wt mice brains. (A) mRNA expression. Total RNA was extracted, purified and reverse transcribed into cDNA. mRNA expression of Dyrk1a, Gsk-3b and reference Rplp0 was quantified by qPCR from the amplification of cDNA with specific primers (one primer annealing to an exon-exon junction). Results are presented as mean±s.e. of four to six measurements and are shown relative to Rplp0 expression, normalized to wt Gsk-3b expression. (B) Protein expression. Total proteins were extracted, resolved by SDS-PAGE and analysed by WB using antibodies directed against DYRK1A, GSK-3α/β and actin (loading control). […]

[7] = system: Ts65Dn mice; test: Novel object recognition (NOR) test in Ts65Dn mice; assay type: in vivo, mouse; conditions: daily i.p. treatment for 19 days
Protocol: as §1, §2

[8] = system: Tg(Dyrk1a) mice; test: Y-maze working memory in Tg(Dyrk1a) mice; assay type: in vivo, mouse; conditions: L41-treated Tg(Dyrk1a) mice
[9] = target: T2, DYRK1A (Mus musculus, UniProt Q61214); test: Brain DYRK1A catalytic activity after treatment, Ts65Dn mice; assay type: in vivo; conditions: 19 days daily i.p., normalized to GSK-3α/β activity
T2 construct: DYRK1A was purified from brain extracts by immunoprecipitation; from tissue; host or cells: mouse brain (wt, Tg(Dyrk1a), Ts65Dn)
Protocol: Protein kinase assays to measure the catalytic activity of DYRK1A in the brains of the animals treated with or without drugs were performed as follows: frozen half brains were homogenized in lysis buffer (1.2 ml/half brain) using Precellys® homogenizer tubes. After centrifugation at 2800 g for 2×15 s, 1 mg brain extract was incubated with 2 µg DYRK1A (H00001859 M01, Interchim) or GSK3-β (MBS8508391, Emelca Bioscience, France) antibodies at 4°C for 1 h under gentle rotation. Then, 20 µl protein G agarose beads (Thermo Fisher Scientific, France), previously washed three times with bead buffer (50 mM Tris pH 7.4, 5 mM NaF, 250 mM NaCl, 5 mM EDTA, 5 mM EGTA, 0.1% Nonidet P-40 and protease inhibitor cocktail from Roche, France), were added to the mix and gently rotated at 4°C for 30 min. After a 1 min spin at 10,000 g and removal of the supernatant, the pelleted immune complexes were washed three times with bead buffer, and a last time with Buffer C (60 mM β-glycerophosphate, 30 mM p-nitrophenolphosphate, 25 mM Mops pH 7.2, 5 mM EGTA, 15 mM MgCl2, 2 mM dithiothreitol, 0.1 mM sodium orthovanadate, 1 mM phenylphosphate, protease inhibitor cocktail). DYRK1A or GSK-3 immobilized on beads were assayed in buffer C as described in the Supplementary Materials and Methods with Woodtide ([…]) (1.5 µg/assay) or GSK3-tide ([…]pSED-EEE, where pS stands for phosphorylated serine) as substrates.

Sequence of CLK3 (O35492 whole entry): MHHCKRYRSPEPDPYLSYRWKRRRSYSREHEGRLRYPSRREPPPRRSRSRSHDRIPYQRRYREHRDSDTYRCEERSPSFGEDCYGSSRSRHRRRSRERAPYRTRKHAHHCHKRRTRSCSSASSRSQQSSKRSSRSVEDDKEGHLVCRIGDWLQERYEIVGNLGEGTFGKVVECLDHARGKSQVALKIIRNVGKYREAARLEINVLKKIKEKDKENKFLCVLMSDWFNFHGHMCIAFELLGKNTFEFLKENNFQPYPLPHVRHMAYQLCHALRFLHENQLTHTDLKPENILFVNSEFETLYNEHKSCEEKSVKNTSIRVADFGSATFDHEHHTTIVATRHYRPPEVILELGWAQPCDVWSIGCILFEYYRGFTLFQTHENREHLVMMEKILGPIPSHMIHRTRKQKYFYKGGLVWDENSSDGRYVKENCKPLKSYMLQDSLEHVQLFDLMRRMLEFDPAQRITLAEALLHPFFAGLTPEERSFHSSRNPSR
T1 sequence (P50750 whole entry): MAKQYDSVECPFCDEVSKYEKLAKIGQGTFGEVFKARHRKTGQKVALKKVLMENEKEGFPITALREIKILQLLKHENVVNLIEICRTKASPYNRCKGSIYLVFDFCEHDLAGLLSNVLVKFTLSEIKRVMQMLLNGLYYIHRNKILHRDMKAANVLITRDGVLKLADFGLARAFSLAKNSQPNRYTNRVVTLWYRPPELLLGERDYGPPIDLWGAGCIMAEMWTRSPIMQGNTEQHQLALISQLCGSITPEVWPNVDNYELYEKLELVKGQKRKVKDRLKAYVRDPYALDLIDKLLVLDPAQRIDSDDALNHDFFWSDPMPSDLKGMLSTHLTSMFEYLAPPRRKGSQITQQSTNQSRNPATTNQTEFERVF
T1 sequence (O60563 whole entry partner): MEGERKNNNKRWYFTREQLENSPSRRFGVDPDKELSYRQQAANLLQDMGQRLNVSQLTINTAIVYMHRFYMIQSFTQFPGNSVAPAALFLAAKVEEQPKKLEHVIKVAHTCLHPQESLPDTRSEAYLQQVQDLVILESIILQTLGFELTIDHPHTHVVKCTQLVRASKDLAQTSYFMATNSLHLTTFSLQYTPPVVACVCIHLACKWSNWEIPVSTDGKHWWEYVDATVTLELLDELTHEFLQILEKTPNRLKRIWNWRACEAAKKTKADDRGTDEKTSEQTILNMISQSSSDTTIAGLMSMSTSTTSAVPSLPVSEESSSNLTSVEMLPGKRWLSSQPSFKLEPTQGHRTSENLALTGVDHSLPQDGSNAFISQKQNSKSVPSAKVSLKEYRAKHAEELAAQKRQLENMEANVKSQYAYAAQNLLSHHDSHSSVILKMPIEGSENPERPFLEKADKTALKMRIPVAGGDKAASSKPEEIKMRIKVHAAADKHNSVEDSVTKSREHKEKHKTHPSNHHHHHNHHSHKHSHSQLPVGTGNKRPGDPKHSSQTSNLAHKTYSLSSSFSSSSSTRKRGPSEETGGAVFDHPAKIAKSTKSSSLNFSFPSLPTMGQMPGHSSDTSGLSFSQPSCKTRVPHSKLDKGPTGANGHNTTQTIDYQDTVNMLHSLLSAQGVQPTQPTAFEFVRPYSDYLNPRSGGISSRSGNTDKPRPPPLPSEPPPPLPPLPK

**Q.** Which results are given for O=C1NC(Nc2ccccc2)=N/C1=C\c1ccc2c(c1)OCO2 [L41]?
**A.** pIC50 [1]: 5.92; Effect on NOR performance of wt animals [2]: no effect; pIC50 [3]: < 5.00; pIC50 [4]: < 5.00; L41 level in brain cytoplasmic fraction, Tg(Dyrk1a) vs wt [5]: significantly increased; L41 levels in brain nuclear fractions, Tg(Dyrk1a) vs wt [5]: identical L41 levels; Effect on Dyrk1a mRNA levels [6]: did not modify; NOR test outcome [7]: rescue; Effect on working memory (Y-maze) [8]: no restoring effect; Reduction of brain DYRK1A activity [9]: ~30%
